# According to patent US7741493B2, “Heterocyclic compounds as P2X7 ion channel blockers” (Aventis Pharmaceuticals Inc., priority 2003, dated 2010):
# Counter-ions that a name gives are not always drawn.
# Molecular target: T1, P2X7 (Homo sapiens, UniProt Q99572)
# T1 sequence (Q99572 1-595): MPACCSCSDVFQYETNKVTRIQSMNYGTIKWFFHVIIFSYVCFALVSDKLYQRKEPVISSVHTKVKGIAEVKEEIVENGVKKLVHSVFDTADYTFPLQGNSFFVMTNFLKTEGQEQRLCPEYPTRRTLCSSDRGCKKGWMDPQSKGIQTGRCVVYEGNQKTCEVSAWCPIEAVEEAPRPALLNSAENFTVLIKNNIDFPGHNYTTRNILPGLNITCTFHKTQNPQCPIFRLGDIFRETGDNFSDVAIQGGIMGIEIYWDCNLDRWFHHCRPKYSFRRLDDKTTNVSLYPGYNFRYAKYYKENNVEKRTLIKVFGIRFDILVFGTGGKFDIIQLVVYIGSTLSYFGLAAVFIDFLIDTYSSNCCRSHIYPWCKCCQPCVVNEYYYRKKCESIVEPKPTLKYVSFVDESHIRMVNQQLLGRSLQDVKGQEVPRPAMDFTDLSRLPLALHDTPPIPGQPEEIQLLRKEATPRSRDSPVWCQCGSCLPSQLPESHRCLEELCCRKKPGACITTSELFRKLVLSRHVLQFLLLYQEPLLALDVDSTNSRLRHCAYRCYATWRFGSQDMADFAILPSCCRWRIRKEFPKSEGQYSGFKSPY
# Assay: YO-PRO-1 dye uptake assay in U373 cells stably expressing P2X7
# Type: cell-based
# Parameters: The complete open reading frame of human P2X7 was amplified from Incyte clone 148057; expressed in transfected cells
# Details: IC50 (nM), dye uptake through P2X7, U373 cells, 300 μM BzATP, 5 μM YO-PRO-1, test compounds 30 nM to 3 μM
# Method: Following a 24-hr exposure to DNA, cells were trypsinized and re-seeded at low density in the presence of […] G418. After incubation for 2 weeks, isolated clones were selected with cloning cylinders and replated in […] G418. Cell clones were then expanded. Clones were screened for P2X7 by applying ATP and recording the resultant current using patch clamp electrophysiology.
# U373 cells stably expressing P2X7 were used to screen drugs via a dye uptake assay. Cells were plated overnight on collagen coated 96-well plates at a density of 35,000 cells per well. The following day, culture media was replaced with Mg^++ and Ca^++-free Hank's balanced salt solution and various concentrations of test compounds ranging from 30 nM to 3 μM. Cells were then allowed to incubate with test compounds at 37° C. for 20 minutes. Following this incubation period YO-PRO-1 dye (Molecular Probes, Eugene, Oreg., final concentration 5 μM) and 2′-& 3′-O-(4-Benzolybenzoyl)-Adenosine 5′-triphosphate (Sigma Chemical, St Louis, Mo., final concentration 300 μM) were added to the cells sequentially. Cells were then incubated at 37° C. for 1.5 hours. […] Fluorescence in the presence of test substances was compared to that in the absence of test substances (control).
row,Compound,IC50 [nM]
1,"c1ccc(CCCCC2=N[C@H](c3ccccc3)[C@H](c3ccccc3)N2)cc1 [2-[4-phenyl-butyl]-cis-4,5-diphenyl-4,5-dihydro-1H-imidazole trifluoroacetate]",610

# Same assay, conditions: dye uptake through P2X7, U373 cells, 300 μM BzATP, 5 μM YO-PRO-1, test compounds 30 nM to 3 μM; read-out: IC50
row,Compound,IC50 [nM]
1,c1ccc(CCC2=N[C@@H](c3ccccc3)[C@@H](c3cccnc3)N2)cc1 (relative stereo) [ditrifluoroacetate],251
2,c1ccc(SCC2=N[C@@H](c3ccccc3)[C@@H](c3cccnc3)N2)cc1 (relative stereo) [ditrifluoroacetate],866
3,CC(C1=N[C@@H](c2ccccc2)[C@@H](c2ccccc2)N1)c1ccc(Cl)cc1 (relative stereo) [trifluoroacetate],423
4,"Fc1cccc(CC2=N[C@@H](c3ccccc3)[C@@H](c3ccccc3)N2)c1F [2-(2,3-Difluorobenzyl)-cis-4,5-diphenyl-4,5-dihydro-1H-imidazole trifluoroacetate]",930
5,"Fc1cccc([C@H]2NC(Cc3ccc(F)cc3F)=N[C@H]2c2cccc(F)c2)c1 [2-(2,4-Difluorobenzyl)-cis-4,5-bis-(3-fluorophenyl)-4,5-dihydro-1H-imidazole trifluoroacetate]",409
6,"Fc1ccc(CC2=N[C@@H](c3ccccc3)[C@@H](c3ccccc3)N2)c(F)c1 [2-(2,4-Difluorobenzyl)-cis-4,5-diphenyl-4,5-dihydro-1H-imidazole trifluoroacetate]",42
7,"Fc1cccc([C@H]2NC(Cc3ccccc3F)=N[C@H]2c2cccc(F)c2)c1 [2-(2-Fluorobenzyl)-cis-4,5-bis-(3-fluorophenyl)-4,5-dihydro-1H-imidazole trifluoroacetate]",449
8,"Fc1cccc([C@H]2NC(Cc3ccc(F)c(F)c3)=N[C@H]2c2cccc(F)c2)c1 [2-(3,4-Difluorobenzyl)-cis-4,5-bis-(3-fluorophenyl)-4,5-dihydro-1H-imidazole trifluoroacetate]",79
9,"Fc1ccc(CC2=N[C@@H](c3ccccc3)[C@@H](c3ccccc3)N2)cc1F [2-(3,4-Difluorobenzyl)-cis-4,5-diphenyl-4,5-dihydro-1H-imidazole trifluoroacetate]",24
10,"Fc1cccc([C@H]2NC(Cc3cccc(Cl)c3)=N[C@H]2c2cccc(F)c2)c1 [2-(3-Chlorobenzyl)-cis-4,5-bis-(3-fluorophenyl)-4,5-dihydro-1H-imidazole trifluoroacetate]",330
11,"Fc1ccc(CC2=N[C@@H](c3cccc(F)c3)[C@@H](c3cccc(F)c3)N2)cc1 [2-(4-Fluorobenzyl)-cis-4,5-bis-(3-fluorophenyl)-4,5-dihydro-1H-imidazole trifluoroacetate]",217
12,"FC(F)(F)c1ccc(CC2=N[C@@H](c3ccccc3)[C@@H](c3ccccc3)N2)cc1 [2-(4-Trifluoromethylbenzyl)-cis-4,5-diphenyl-4,5-dihydro-1H-imidazole trifluoroacetate]",403
13,"OC(CC1=N[C@@H](c2ccccc2)[C@@H](c2ccccc2)N1)c1ccccc1 (stereo partly drawn) [2-(cis-4,5-diphenyl-4,5-dihydro-1H-imidazol-2-yl)-1-phenylethan-1-ol]",195
14,"c1ccc(C(CC2=N[C@@H](c3ccccc3)[C@@H](c3ccccc3)N2)c2ccccc2)cc1 [2-[2,2-diphenylethyl]-cis-4,5-diphenyl-4,5-dihydro-1H-imidazole trifluoroacetate]",320
15,"Fc1cccc([C@H]2NC(CCc3ccccc3Cl)=N[C@H]2c2cccc(F)c2)c1 [2-[2-(2-Chlorophenyl)ethyl]-cis-4,5-bis-(3-fluorophenyl)-4,5-dihydro-1H-imidazole]",140
16,"Clc1ccccc1CCC1=N[C@@H](c2ccccc2)[C@@H](c2ccccc2)N1 [2-[2-(2-Chlorophenyl)ethyl]-cis-4,5-diphenyl-4,5-dihydro-1H-imidazole trifluoroacetate]",48
17,"Fc1cccc([C@H]2NC(CCc3ccccc3F)=N[C@H]2c2cccc(F)c2)c1 [2-[2-(2-Fluorophenyl)ethyl]-cis-4,5-bis-(3-fluorophenyl)-4,5-dihydro-1H-imidazole trifluoroacetate]",304

row,Compound,IC50 [nM]
1,"Fc1ccccc1CCC1=N[C@@H](c2ccccc2)[C@@H](c2ccccc2)N1 [2-[2-(2-Fluorophenyl)ethyl]-cis-4,5-diphenyl-4,5-dihydro-1H-imidazole trifluoroacetate]",164
2,"COc1ccccc1CCC1=N[C@@H](c2ccccc2)[C@@H](c2ccccc2)N1 [2-[2-(2-Methoxyphenyl)ethyl]-cis-4,5-diphenyl-4,5-dihydro-1H-imidazole trifluoroacetate]",832
3,"Cc1ccccc1CCC1=N[C@@H](c2cccc(F)c2)[C@@H](c2cccc(F)c2)N1 [2-[2-(2-Methylphenyl)ethyl]-cis-4,5-bis-(3-fluorophenyl)-4,5-dihydro-1H-imidazole trifluoroacetate]",94
4,"Fc1cccc([C@H]2NC(CCc3ccc(F)c(F)c3)=N[C@H]2c2cccc(F)c2)c1 [2-[2-(3,4-Difluorophenyl)ethyl]-cis-4,5-bis-(3-fluorophenyl)-4,5-dihydro-1H-imidazole]",173
5,"Fc1ccc(CCC2=N[C@H](c3ccccc3)[C@H](c3ccccc3)N2)cc1F [2-[2-(3,4-Difluorophenyl)ethyl]-cis-4,5-diphenyl-4,5-dihydro-1H-imidazole]",122
6,"Clc1cccc(CCC2=N[C@H](c3ccccc3)[C@H](c3ccccc3)N2)c1 [2-[2-(3-Chlorophenyl)ethyl]-cis-4,5-diphenyl-4,5-dihydro-1H-imidazole trifluoroacetate]",120
7,"Fc1cccc(CCC2=N[C@@H](c3cccc(F)c3)[C@@H](c3cccc(F)c3)N2)c1 [2-[2-(3-Fluorophenyl)ethyl]-cis-4,5-bis-(3-fluorophenyl)-4,5-dihydro-1H-imidazole trifluoroacetate]",79
8,"Fc1cccc(CCC2=N[C@@H](c3ccccc3)[C@@H](c3ccccc3)N2)c1 [2-[2-(3-Fluorophenyl)ethyl]-cis-4,5-diphenyl-4,5-dihydro-1H-imidazole trifluoroacetate]",31
9,"Cc1cccc(CCC2=N[C@@H](c3cccc(F)c3)[C@@H](c3cccc(F)c3)N2)c1 [2-[2-(3-Methylphenyl)ethyl]-cis-4,5-bis-(3-fluorophenyl)-4,5-dihydro-1H-imidazole trifluoroacetate]",385
10,"Cc1cccc(CCC2=N[C@@H](c3ccccc3)[C@@H](c3ccccc3)N2)c1 [2-[2-(3-Methylphenyl)ethyl]-cis-4,5-diphenyl-4,5-dihydro-1H-imidazole trifluoroacetate]",229
11,"Fc1ccc(CCC2=N[C@@H](c3cccc(F)c3)[C@@H](c3cccc(F)c3)N2)cc1 [2-[2-(4-Fluorophenyl)ethyl]-cis-4,5-bis-(3-fluorophenyl)-4,5-dihydro-1H-imidazole trifluoroacetate]",572
12,"Fc1ccc(CCC2=N[C@@H](c3ccccc3)[C@@H](c3ccccc3)N2)cc1 [2-[2-(4-Fluorophenyl)ethyl]-cis-4,5-diphenyl-4,5-dihydro-1H-imidazole trifluoroacetate]",218
13,"c1ccc(CCCC2=N[C@H](c3ccccc3)[C@H](c3ccccc3)N2)cc1 [2-[3-phenyl-propyl]-cis-4,5-diphenyl-4,5-dihydro-1H-imidazole trifluoroacetate]",540
14,"Fc1ccc(CSC2=N[C@@H](c3ccccc3)[C@@H](c3ccccc3)N2)c(Cl)c1 [2-[(2-Chloro-4-fluorobenzyl)thio]-cis-4,5-diphenyl-4,5-dihydro-1H-imidazole hydrochloride]",828
15,"Fc1cccc([C@H]2NC(COc3ccccc3F)=N[C@H]2c2cccc(F)c2)c1 [2-[(2-Fluorophenoxy)methyl]-cis-4,5-bis-(3-fluorophenyl)-4,5-dihydro-1H-imidazole]",834
16,"Fc1cccc([C@H]2NC(CCc3cccs3)=N[C@H]2c2cccc(F)c2)c1 [2-[(2-Thiophen-2-yl)ethyl]-cis-4,5-bis-(3-fluorophenyl)-4,5-dihydro-1H-imidazole trifluoroacetate]",592
17,"c1ccc(COc2ccc(CSC3=N[C@@H](c4ccccc4)[C@@H](c4ccccc4)N3)cc2OCc2ccccc2)cc1 [2-[(3,4-Dibenzyloxybenzyl)thio]-cis-4,5-diphenyl-4,5-dihydro-1H-imidazole hydrochloride]",548
